Data on 88 compounds can be found in a melting point compilation (Tetko et al.; mined from patent text by program, amines drawn as free bases though some values may be those of a salt).

For orientation: melting point means the temperature, or range, at which the solid turns liquid.

For the compound `COc1cc(N2CCOCC2)ccc1C(=O)O`, the melting point is 158 to 160 °C.

`CCOC(=O)c1cnc2c3cc(OC)c(OC)cc3ccn2c1=O` displayed a melting point of 264 to 265 °C.

`COc1cccc(CNC(=O)c2nc3ccc(F)c(OCCc4ccc(-n5cn[nH]c5=O)cc4)c3c(=O)[nH]2)c1` showed a melting point of 196 to 198 °C.

For the compound `NC[C@@H]1CNc2cccc(-c3ccc(Cl)cc3Cl)c2O1`, the melting point was 163 °C.

`CCOC(=O)c1sc(Oc2ccccc2)c2c1CCC(C(OCC)OCC)C2=O` (stereo not drawn) gave a melting point of 73 to 74 °C.

Consider `CCCCN(CCCC)c1ccc(C=Cc2ccc(C=CC3=C(C#N)C(=C(C#N)C#N)OC3(C)C(F)(F)F)cc2)c(OC)c1` (stereo not drawn), for which the melting point was in the range of 175 to 177 °C.

`CC(N)C(Cc1ccc(OCc2ccccc2)cc1)CC(O)c1ccccc1F` (stereo not drawn) yielded a melting point of 162 to 163 °C.

`O=C(O)C1=Cc2ccc(-c3ccccc3)cc2OC1C(F)(F)F` (stereo not drawn): the melting point was in the range of 209 to 212 °C.

`COc1ccc(CNc2c(C)c(C)c3c(c2C)C(c2ccccc2)C(C)(C)O3)cc1` (stereo not drawn): the melting point is 113 to 115 °C.

For `Cc1c(-c2csc(-c3ccncc3)n2)c(=O)[nH]c2ccccc12`, the melting point was greater than 250 °C.

As to `O=C(O)c1ccccc1N1C(=O)c2cccc([N+](=O)[O-])c2C1=O`, the melting point was 190 to 192 °C.

In turn, `CCOC(=O)Cc1ccc2c(c1)sc1cccc(Cl)c12` showed a melting point of 82 to 84 °C.

`CC(C)(C)OC(=O)N1CCN(CC(O)CNc2ccc(CC#N)cc2)CC1` (stereo not drawn): the melting point was 86 to 87 °C.

In turn, `CC(=O)Oc1ccc(CI)cc1C(OC(C)=O)OC(C)=O` came in with a melting point of 117 to 120 °C.

`COC(=O)C(Cc1ccccc1)Cc1ccc(OCCn2c(=O)sc3cc(C(=O)c4ccccc4)ccc32)cc1` (stereo not drawn) had a melting point of 65 to 67 °C.

For the compound `CCn1cc(C(=O)O)c(=O)c2cc(F)c(N3CC4CC3CN4)c(F)c21` (stereo not drawn), the melting point was 233 to 236 °C.

On to `N#CCc1c[nH]c2ccc(NC(N)=O)cc12`, for which the melting point is 200 to 204 °C.

For the compound `COc1ccc2[nH]c(S(=O)Cc3nccc(N4CCOCC4)c3F)nc2c1` (stereo not drawn), the melting point lay within 142 to 146 °C.

`COC(=O)c1cc(F)c(Cl)nc1Nc1ccc(F)cc1F` showed a melting point of 137 to 139 °C.

With `CN(C)CC(=O)NCc1ccc(-c2cc3c(Nc4ccc(F)c(Cl)c4)ncnc3[nH]2)cc1`, the melting point lay in the range of 320 to 325 °C.

For the compound `CCCc1c(C)nc2ccc(C(=O)OC)cn2c1=O`, the melting point fell in the range of 98 to 99 °C.

As for `CCOC(=O)N(c1ccccc1)c1cc(Cl)ccc1N=NC(NC(=O)CCl)(C(=O)OCC)C(=O)OCC`, the melting point fell in the range of 105 to 110 °C.

Turning to `CCOC(=O)c1ccc(-c2ccc(F)cc2)cc1-c1ccc(OC)c(OC)c1`, the melting point was found to be 127 °C.

The compound `CNc1nnc(-c2ccc3ncn(-c4ccc(OC(F)F)cc4)c3c2)o1` gave a melting point of 195 to 196 °C.

`Nc1ncnc2c1c(-c1ccc(Oc3ccccc3)cc1)nn2C1CCC(=O)CC1` yielded a melting point of 203 to 205 °C.

For `O=C(NN=CC=Cc1ccccc1)c1ccccc1`, the melting point fell in the range of 192 to 194 °C.

Compound `Nc1ccc(P(=O)(O)O)cc1` came in with a melting point of 257 to 260 °C.

As for `O=C(O)c1c(F)c(OC(F)F)c(F)c(F)c1[N+](=O)[O-]`, the melting point was in the range of 77 to 80 °C.

Compound `Nc1nc(Cl)cc(NCC2CC2(Cl)Cl)n1` (stereo not drawn) showed a melting point of 78 to 79 °C.

Compound `C=C(C)c1c(C)oc2c(NC(=O)c3c(Cl)cccc3Cl)cccc12` registered a melting point of 147 to 148 °C.

Compound `CN(C)C(=O)C(CCO)C1CCc2c1[nH]c1ccccc21` (stereo not drawn) showed a melting point of 118 to 120 °C.

For `CCOC(=O)CS(=O)(=O)CCCC=C1SC=CS1`, the melting point fell in the range of 79.5 to 81 °C.

For `CC(C)NC(=O)c1c(C(=O)O)ccc(Cl)c1Cl`, the melting point lay in the range of 155 to 156 °C.

The compound `CN(Cc1cc2c3c(c1)c(=O)c(C(=O)NCc1ccc(Cl)cc1)cn3CC(=O)N2C)C[C@H](O)c1cccnc1` came in with a melting point of 125 to 127 °C.

`O=C1CCC(N2Cc3c(OCc4ccc(CN5CCC(c6ccccc6)CC5)cc4)cccc3C2=O)C(=O)N1` (stereo not drawn) had a melting point of 220 to 222 °C.

With `COc1ccc(-c2cc(-c3ccc(F)cc3)c3c(=O)n(C)c(=O)n(C)c3n2)cc1`, the melting point was 240 to 243 °C.

For `CCCc1c(OCCCOCCCOc2c(C(C)=O)ccc(OCC(=O)O)c2CCC)ccc(C(C)=O)c1O`, the melting point fell in the range of 86 to 90 °C.

`Clc1ccc(C=Cc2ccc(CBr)cc2)cc1` yielded a melting point of 130 to 132 °C.

Consider `COC(=O)c1cc(-c2nc(COc3ccc(CCl)cc3OC)c(C)o2)ccc1OS(C)(=O)=O`, for which the melting point lay within 146 to 147 °C.

Compound `CCCC[C@@H](NC(=O)OC(C)(C)C)C(=O)NCC(=O)OCc1ccccc1` showed a melting point of 85 to 86 °C.

The compound `COP(=O)(CC(COc1cccc(C(F)(F)F)c1)=NNC(N)=O)OC` returned a melting point of 132 to 133 °C.

In turn, `Cc1cc(S(=O)(=O)NC(=O)c2cn3cc(C(F)(F)F)cc(Cl)c3n2)c(C)cc1C#N` gave a melting point of 228 to 229 °C.

`O=C1NC(Cc2c[nH]c3ccccc23)C(CCc2cc(C(F)(F)F)cc(C(F)(F)F)c2)N1CCN1CCOCC1` (stereo not drawn): the melting point was found to be 207 °C.

The compound `O=P1(c2ccccc2)c2ccccc2CN1c1ccc(Br)cc1` (stereo not drawn) showed a melting point of 200 to 202 °C.

For `CCOCc1cc(C(C)(C)C)cc(COCC)c1SSc1c(COCC)cc(C(C)(C)C)cc1COCC`, the melting point is 62 to 63 °C.

Regarding `CCC(C)c1ccccc1N` (stereo not drawn), the melting point is 89 to 91 °C.

`O=c1cc(-c2ccccc2)sc2c1[nH]c1ccccc12` had a melting point of 271 to 272 °C.

`Nc1cc(=O)n(Cc2ccc(C(F)(F)F)c(Cl)c2)[nH]1`: the melting point came to 83 °C.

For the compound `CCOC(=O)C1=C(N)NC(c2ccccc2)=CC1c1cccc([N+](=O)[O-])c1` (stereo not drawn), the melting point lay within 171 to 172 °C.

`O=C(Oc1ccc([N+](=O)[O-])cc1)C(=O)N1CCOC1=O` registered a melting point of 159 °C.

As for `COc1ccc(CN2CCC(N=C(NC#N)N3CCc4ccccc4C3)CC2)cc1`, the melting point lay in the range of 135 to 137 °C.

`Cc1nnc(COc2cccc3c2CN(C2CCC(=O)NC2=O)C3=O)o1` (stereo not drawn) returned a melting point of 206 to 208 °C.

Compound `Nc1nc2c(ncn2CCC(CO)CCl)c(=O)[nH]1` (stereo not drawn) displayed a melting point of 273 to 275 °C.

Compound `CCOC(=O)[C@H](Cc1ccc(-c2c(OC)cc(COS(C)(=O)=O)cc2OC)cc1)NC(=O)c1c(Cl)cccc1Cl` showed a melting point of 109 °C.

Regarding `Fc1ccc2c(C3CCN(CC4COc5ccccc5O4)CC3)noc2c1` (stereo not drawn), the melting point is 86 to 87 °C.

Consider `COc1ccc(S(N)(=O)=O)cc1C(=O)NCc1ccc(OCCN(C)C)cc1`, for which the melting point is 122 to 123 °C.

Take `CNC(=O)Nc1ccc(F)cc1Cl`: the melting point was in the range of 174 to 178 °C.

In turn, `CN(C)C(=O)c1cccc2c1nc(-c1c(F)cccc1F)n2Cc1c(F)cccc1F` gave a melting point of 213 to 214 °C.

With `O=C(CC1c2ccccc2C(=O)N1c1ccccc1)N1CCCCC1` (stereo not drawn), the melting point is 122 to 123 °C.

On to `C=Cc1c(NC(=O)OC(C)(C)C)cccc1[N+](=O)[O-]`, for which the melting point lay within 120 to 121 °C.

Turning to `c1ccc(CCCC2CCN(Cc3nc4ccccc4[nH]3)CC2)cc1`, the melting point was 140 to 141 °C.

As to `CSc1nccc(C(C)=O)n1`, the melting point amounted to 35 °C.

As to `C=CCOc1cccc(C2=NNC(=O)CC2)c1`, the melting point lay in the range of 111 to 113 °C.

Consider `N#Cc1ccccc1N1CCCN(Cc2cc3cc(F)ccc3[nH]2)CC1`, for which the melting point fell in the range of 194 to 198 °C.

Regarding `Cc1nc(-c2ccc(Cl)cc2)n(-c2ccc(S(N)(=O)=O)cn2)n1`, the melting point was 215 to 217 °C.

`COC(COc1cc(-n2ncc(C(F)(F)F)c(C)c2=O)c(F)cc1Cl)OC` showed a melting point of 86 °C.

`CCCCCCCCCCCCCCCCCCOc1ccccc1NC(=O)CC(=O)C(C)(C)SCC` came in with a melting point of 60 to 62 °C.

For `O/N=C(/CCN1CCN(c2ncccn2)CC1)c1ccccc1`, the melting point was 175 to 177 °C.

The compound `CCOC(=O)c1ccc(-c2ccc(OCCNC3CC3)c(-c3ccc4c(c3)C(C)(C)CCC4(C)C)c2)cc1` came in with a melting point of 141 °C.

Compound `Cc1ccc(CC(=O)N[C@H]2C[C@H](C(=O)O)Nc3cc(Cl)cc(Cl)c32)cc1` (relative stereo) came in with a melting point of 229 to 230 °C.

`Cc1c(NC(=O)c2ccc(-c3ccc4c(c3)CCCCO4)cc2)ccc2cc(CN3CCCC3)cnc12` showed a melting point of 162 to 163 °C.

`OCc1cc(O)cc2cc(-c3ccc(O)cc3)oc12`: the melting point fell in the range of 258 to 260 °C.

`CC(C)(CO)NC(=O)c1nn(-c2ccc(Br)cc2)c2c1C1CCC2C1` (stereo not drawn) came in with a melting point of 184 to 186 °C.

For `CNc1cc(OC)c(OC)cc1C(C)=O`, the melting point was 121 to 124 °C.

`CC(=O)Nc1cc(C(C)(C)C)cc(OCc2ccccc2)c1C` showed a melting point of 170 to 172 °C.

`Cc1ccc(N2CCN(c3c(C)c(O)c4c(c3C)CC(C)(C)O4)CC2)cc1` registered a melting point of 185 to 189 °C.

Turning to `Nc1cc(=O)[nH]c2c1cnn2-c1ccccc1`, the melting point was in the range of 223 to 225 °C.

`CC1(C)CN2C(=O)c3ncccc3C(O)(c3ccc(Cl)cc3)C2=N1` (stereo not drawn) displayed a melting point of 257 to 260 °C.

As for `Cc1scc2c1N(C(=O)N1CC3CN(C)CC3C1)c1ccccc1NC2=O` (stereo not drawn), the melting point lay in the range of 220 to 222 °C.

As for `O=C(O)c1cccc(OCc2csc(-c3ccccc3)n2)c1`, the melting point is 155 to 157 °C.

In turn, `Cc1cnc2[nH]c3ccccc3c2c1` registered a melting point of 270 °C.

`CCC12CCC3C(=CCC4(C)C(O)CCC34)C1(C)CCC(O)C2` (stereo not drawn) registered a melting point of 165 °C.

With `C#CCC(C(=CCl)c1cccnc1)c1ccc(Cl)cc1Cl` (stereo not drawn), the melting point lay in the range of 87 to 88 °C.

Compound `COCCOc1cc2ncnc(NC3=CC(=O)C(Oc4ccc(-n5ccnc5)cc4)=CC3=O)c2cc1OCCOC` showed a melting point of 109 to 115 °C.

The compound `Cc1c(S(=O)(=O)c2ccc(Cl)cc2)cc(C(C)C)c(O)c1C(=O)O` had a melting point of 165 to 166 °C.

`CN1C2C=C(c3ccc(Cl)c(Cl)c3)CC1CC2` (stereo not drawn) had a melting point of 44 to 52 °C.

In the case of `c1ccc(-c2cccc(N(c3ccccc3)c3ccc4c(c3)Oc3ccc(N(c5ccccc5)c5cccc(-c6ccccc6)c5)cc3O4)c2)cc1`, the melting point came to 232 °C.

In turn, `CC(C)(C)NC(=O)NN1CC=CCC1` yielded a melting point of 156 °C.
